Results: article PMC8035258 (ChemMedChem, 2021)

Assays:
[1] = system: 22Rv1 prostate cancer cells; assay: MTS cytotoxicity assay in 22Rv1 prostate cancer cells; assay type: cell-based; conditions: for reduction of 22Rv1 cell viability: 100 μM, 48 hr treatment, MTS
[2] = molecular target: Mitochondrial respiratory complex II (Mus musculus, UniProt Q8K2B3+Q9CQA3+Q9CXV1+Q9CZB0); assay: Complex II inhibition assay; assay type: biochemical; conditions: for inhibition at 100 µM: read-out: % Inhibition CII (100 μM), 100 μM; for inhibition at 100 µM / % Inhibition CII (100 μM): mouse liver mitochondria, mean ±SD of n = 4
[3] = system: TNBC MDA-MB-468 cells; assay: MTS cytotoxicity assay in MDA-MB-468 cells; assay type: cell-based; conditions: for SI (Selectivity Index): MDA-MB-468 over HEK293 cells
[4] = system: low tumorigenic human endothelial kidney (HEK293) cells; assay: MTS cytotoxicity assay in HEK293 cells; assay type: cell-based; conditions: Homo sapiens, HEK293, 72 h, read-out: HEK293 IC50

Sequence of Mitochondrial respiratory complex II (Q8K2B3 43-664): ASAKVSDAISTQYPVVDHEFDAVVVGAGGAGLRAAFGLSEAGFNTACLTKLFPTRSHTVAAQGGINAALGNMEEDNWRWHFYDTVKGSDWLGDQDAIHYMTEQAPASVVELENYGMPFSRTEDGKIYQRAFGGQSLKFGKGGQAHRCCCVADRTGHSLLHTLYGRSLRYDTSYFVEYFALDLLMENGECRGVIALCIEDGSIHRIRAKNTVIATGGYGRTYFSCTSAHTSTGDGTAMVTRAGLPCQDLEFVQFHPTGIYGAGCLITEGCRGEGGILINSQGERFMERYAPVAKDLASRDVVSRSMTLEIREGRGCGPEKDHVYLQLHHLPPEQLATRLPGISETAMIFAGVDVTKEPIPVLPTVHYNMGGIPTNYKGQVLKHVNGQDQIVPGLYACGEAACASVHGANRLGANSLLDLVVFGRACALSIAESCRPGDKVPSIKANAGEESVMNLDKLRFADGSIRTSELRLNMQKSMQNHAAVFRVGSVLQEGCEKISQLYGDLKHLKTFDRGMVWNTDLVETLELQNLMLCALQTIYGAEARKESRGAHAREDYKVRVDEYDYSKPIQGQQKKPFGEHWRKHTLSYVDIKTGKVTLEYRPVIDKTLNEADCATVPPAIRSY
Sequence of Mitochondrial respiratory complex II (Q9CQA3 31-282): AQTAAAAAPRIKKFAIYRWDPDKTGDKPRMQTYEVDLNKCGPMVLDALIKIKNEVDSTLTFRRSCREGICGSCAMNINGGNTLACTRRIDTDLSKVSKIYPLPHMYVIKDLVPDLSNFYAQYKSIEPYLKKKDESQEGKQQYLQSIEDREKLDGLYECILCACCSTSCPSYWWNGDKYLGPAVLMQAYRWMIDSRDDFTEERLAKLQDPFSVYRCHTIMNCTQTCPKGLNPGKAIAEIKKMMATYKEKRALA
Sequence of Mitochondrial respiratory complex II (Q9CZB0 30-169): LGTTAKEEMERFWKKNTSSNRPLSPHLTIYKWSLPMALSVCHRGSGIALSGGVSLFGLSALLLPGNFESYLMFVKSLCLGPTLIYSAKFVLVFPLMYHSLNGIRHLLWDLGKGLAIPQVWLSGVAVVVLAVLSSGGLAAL
Sequence of Mitochondrial respiratory complex II (Q9CXV1 57-159): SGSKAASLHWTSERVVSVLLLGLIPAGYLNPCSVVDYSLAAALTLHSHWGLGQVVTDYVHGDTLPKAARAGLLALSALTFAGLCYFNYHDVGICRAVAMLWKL

Compound | reduction of 22Rv1 cell viability [1] | inhibition at 100 µM [2] [%] | SI (Selectivity Index) [3] | IC50 [4] [µM] | IC50 [2] [µM] | IC50 ([1]; Homo sapiens, 22Rv1, read-out: 22Rv1 IC50) [µM] | % Inhibition CII (100 μM) [2] [%] | IC50 ([3]; read-out: MDA-MB-468 IC50, 72 hours, mean ±SD of n=3) [µM]
O=S1(=O)N=C(NCc2ccc(Cl)cc2)Nc2cc(Cl)ccc21 [Compound 16b, 6-Chloro-3-((4-chlorobenzyl)amino)-4H-benzo[e][1,2,4]thiadiazine 1,1-dioxide] | 10% | – | – | – | – | – | – | –
CC(NC1=NS(=O)(=O)c2cc(F)ccc2N1)c1ccccc1 (stereo not drawn) [Compound 24a, 7-Fluoro-3-((1-phenylethyl)amino)-4H-benzo[e][1,2,4]thiadiazine 1,1-dioxide] | 34% | 22 ± 9.9 | 10.2 | 42.6 ± 5.9 | – | – | – | –
O=S1(=O)N=C(NCc2ccc(C(F)(F)F)cc2)Nc2ccc(Br)cc21 [Compound 25c, 7-Bromo-3-((4-(trifluoromethyl)benzyl)amino)-4H-benzo[e][1,2,4]thiadiazine 1,1-dioxide] | 34% | – | – | 57.5 ± 4.7 | – | – | – | –
CC(NC1=NS(=O)(=O)c2cc(Br)ccc2N1)c1ccccc1 (stereo not drawn) [Compound 24c, 7-Bromo-3-((1-phenylethyl)amino)-4H-benzo[e][1,2,4]thiadiazine 1,1-dioxide] | 70% | 55 ± 8.2 | 11 | 32.2 ± 1.5 | 79.8 ± 4.1 | 38.9 ± 3.2 | – | –
C=CCNC1=NS(=O)(=O)c2cc(F)ccc2N1 [Compound 32a, 3-(Allylamino)-7-fluoro-4H-benzo[e][1,2,4]thiadiazine 1,1-dioxide] | 24% | 38 ± 7.8 | – | – | – | – | – | –
O=S1(=O)N=C(NC2CCCC2)Nc2cc(Cl)ccc21 [Compound 22b, 6-Chloro-3-(cyclopentylamino)-4H-benzo[e][1,2,4]thiadiazine 1,1-dioxide] | 34% | – | – | – | – | – | – | –
O=S1(=O)NC(=S)Nc2cc(Cl)ccc21 [Compound 12b, 6-Chloro-3-thioxo-3,4-dihydro-2H-1,2,4-benzothiadiazine 1,1-dioxide] | 12% | 81 ± 6.9 | – | – | 11.9 ± 3.3 | – | – | –
O=S1(=O)N=C(NCCc2c[nH]c3ccccc23)Nc2ccc(F)cc21 [Compound 36a, 3-((2-(1H-indol-3-yl)ethyl)amino)-7-fluoro-4H-benzo[e][1,2,4]thiadiazine 1,1-dioxide] | 30% | 17 ± 8.2 | – | – | – | – | – | –
O=S1(=O)N=C(NCc2ccc(OC(F)(F)F)cc2)Nc2ccccc21 [Compound 30d, 3-((4-(Trifluoromethoxy)benzyl)amino)-4H-benzo[e][1,2,4]thiadiazine 1,1-dioxide] | approximately 30% | 7 ± 6.2 | – | – | – | – | – | –
O=S1(=O)NC(=S)Nc2ccc(Br)cc21 [Compound 12c, 7-Bromo-3-thioxo-3,4-dihydro-2H-1,2,4-benzothiadiazine 1,1-dioxide] | 16% | 55 ± 15.2 | – | – | 37 ± 2.4 | – | – | –
CC(NC1=NS(=O)(=O)c2ccc(Cl)cc2N1)c1ccccc1 (stereo not drawn) [Compound 24b, 6-Chloro-3-((1-phenylethyl)amino)-4H-benzo[e][1,2,4]thiadiazine 1,1-dioxide] | 50% | 51 ± 13.9 | 2.72 | 118 ± 22.3 | 89 ± 10.4 | – | – | –
O=S1(=O)N=C(NCCCc2ccccc2)Nc2ccc(Br)cc21 [Compound 23c, 7-Bromo-3-((3-phenylpropyl)amino)-4H-benzo[e][1,2,4]thiadiazine 1,1-dioxide] | 42% | 47 | 7.75 | 71.8 ± 8.2 | – | – | 46 ±13.4 | –
O=S1(=O)N=C(NCc2ccc(OC(F)(F)F)cc2)Nc2ccc(Br)cc21 [Compound 30c, 7-Bromo-3-((4-(trifluoromethoxy)benzyl)amino)-4H-benzo[e][1,2,4] thiadiazine 1,1-dioxide] | 45% | 21 | 2.93 | 52.9 ± 1.8 | – | – | 22 ±21.1 | 18 ± 1.4
